{"source": "PubChem BioAssay (NCI)", "experiment_in_all_cases": "NCI anticancer screen, dose series, 48 h", "key": {"HT29 colon": {"tested_on": "HT29 colon"}, "SNB-75 CNS": {"tested_on": "SNB-75 CNS"}, "OVCAR-4 ovarian": {"tested_on": "OVCAR-4 ovarian"}, "HS 578T breast": {"tested_on": "HS 578T breast"}, "SK-MEL-28 melanoma": {"tested_on": "SK-MEL-28 melanoma"}, "DU-145 prostate": {"tested_on": "DU-145 prostate"}, "MCF7 breast": {"tested_on": "MCF7 breast"}, "PC-3 prostate": {"tested_on": "PC-3 prostate"}, "NCI-H522 lung": {"tested_on": "NCI-H522 lung"}, "LOX IMVI melanoma": {"tested_on": "LOX IMVI melanoma"}, "CCRF-CEM leukemia": {"tested_on": "CCRF-CEM leukemia"}, "A549 NSCLC": {"tested_on": "A549 NSCLC"}, "RPMI-8226 leukemia": {"tested_on": "RPMI-8226 leukemia"}}, "note": "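Method: 48-hour compound exposure of cells in 96-well plates, five concentrations, linear interpolation of endpoints. TGI marks complete inhibition of growth.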", "data": [{"smiles": "O=c1oc2ccccc2c(O)c1/C=N/C(=S)NCCc1ccccc1", "values": [{"measurement": "TGI", "setting": "HT29 colon", "value": "> 100", "unit": "µM"}, {"measurement": "TGI", "setting": "SNB-75 CNS", "value": "> 87.5", "unit": "µM"}, {"measurement": "TGI", "setting": "OVCAR-4 ovarian", "value": "> 100", "unit": "µM"}, {"measurement": "TGI", "setting": "HS 578T breast", "value": "> 100", "unit": "µM"}, {"measurement": "TGI", "setting": "SK-MEL-28 melanoma", "value": "> 100", "unit": "µM"}, {"measurement": "TGI", "setting": "DU-145 prostate", "value": "> 100", "unit": "µM"}, {"measurement": "TGI", "setting": "MCF7 breast", "value": "> 100", "unit": "µM"}, {"measurement": "TGI", "setting": "PC-3 prostate", "value": "> 100", "unit": "µM"}, {"measurement": "TGI", "setting": "NCI-H522 lung", "value": 87.4, "unit": "µM"}, {"measurement": "TGI", "setting": "LOX IMVI melanoma", "value": "> 100", "unit": "µM"}, {"measurement": "TGI", "setting": "CCRF-CEM leukemia", "value": 86.1, "unit": "µM"}, {"measurement": "TGI", "setting": "A549 NSCLC", "value": "> 100", "unit": "µM"}, {"measurement": "TGI", "setting": "RPMI-8226 leukemia", "value": 89.3, "unit": "µM"}]}, {"smiles": "CC(=O)CSc1c(-c2ccccc2)c(=O)n(-c2ccccc2)c(=S)n1-c1ccccc1", "values": [{"measurement": "TGI", "setting": "HT29 colon", "value": "> 100", "unit": "µM"}, {"measurement": "TGI", "setting": "SNB-75 CNS", "value": "> 100", "unit": "µM"}, {"measurement": "TGI", "setting": "OVCAR-4 ovarian", "value": "> 100", "unit": "µM"}, {"measurement": "TGI", "setting": "HS 578T breast", "value": "> 100", "unit": "µM"}, {"measurement": "TGI", "setting": "SK-MEL-28 melanoma", "value": "> 100", "unit": "µM"}, {"measurement": "TGI", "setting": "DU-145 prostate", "value": "> 100", "unit": "µM"}, {"measurement": "TGI", "setting": "MCF7 breast", "value": "> 100", "unit": "µM"}, {"measurement": "TGI", "setting": "PC-3 prostate", "value": "> 100", "unit": "µM"}, {"measurement": "TGI", "setting": "NCI-H522 lung", "value": "> 100", "unit": "µM"}, {"measurement": "TGI", "setting": "LOX IMVI melanoma", "value": "> 100", "unit": "µM"}, {"measurement": "TGI", "setting": "CCRF-CEM leukemia", "value": "> 100", "unit": "µM"}, {"measurement": "TGI", "setting": "A549 NSCLC", "value": "> 100", "unit": "µM"}, {"measurement": "TGI", "setting": "RPMI-8226 leukemia", "value": "> 100", "unit": "µM"}]}, {"smiles": "Cc1cc(S(=O)(=O)Nc2cc(N)[nH]n2)c(SCc2nc(N)nc(N(C)C)n2)cc1Cl", "values": [{"measurement": "TGI", "setting": "HT29 colon", "value": "> 10", "unit": "µM"}, {"measurement": "TGI", "setting": "SNB-75 CNS", "value": "> 10", "unit": "µM"}, {"measurement": "TGI", "setting": "OVCAR-4 ovarian", "value": "> 10", "unit": "µM"}, {"measurement": "TGI", "setting": "HS 578T breast", "value": "> 10", "unit": "µM"}, {"measurement": "TGI", "setting": "SK-MEL-28 melanoma", "value": "> 10", "unit": "µM"}, {"measurement": "TGI", "setting": "DU-145 prostate", "value": "> 10", "unit": "µM"}, {"measurement": "TGI", "setting": "MCF7 breast", "value": "> 10", "unit": "µM"}, {"measurement": "TGI", "setting": "PC-3 prostate", "value": "> 10", "unit": "µM"}, {"measurement": "TGI", "setting": "NCI-H522 lung", "value": "> 10", "unit": "µM"}, {"measurement": "TGI", "setting": "LOX IMVI melanoma", "value": "> 10", "unit": "µM"}, {"measurement": "TGI", "setting": "CCRF-CEM leukemia", "value": "> 10", "unit": "µM"}, {"measurement": "TGI", "setting": "A549 NSCLC", "value": "> 10", "unit": "µM"}, {"measurement": "TGI", "setting": "RPMI-8226 leukemia", "value": "> 10", "unit": "µM"}]}, {"smiles": "Cc1ccc(Nc2c(C#N)[n+]([O-])c3cc(Cl)ccc3[n+]2[O-])cc1", "values": [{"measurement": "TGI", "setting": "HT29 colon", "value": "> 61.1", "unit": "µM"}, {"measurement": "TGI", "setting": "SNB-75 CNS", "value": "> 100", "unit": "µM"}, {"measurement": "TGI", "setting": "OVCAR-4 ovarian", "value": "> 100", "unit": "µM"}, {"measurement": "TGI", "setting": "HS 578T breast", "value": "> 100", "unit": "µM"}, {"measurement": "TGI", "setting": "SK-MEL-28 melanoma", "value": "> 100", "unit": "µM"}, {"measurement": "TGI", "setting": "DU-145 prostate", "value": "> 100", "unit": "µM"}, {"measurement": "TGI", "setting": "MCF7 breast", "value": "> 100", "unit": "µM"}, {"measurement": "TGI", "setting": "PC-3 prostate", "value": "> 100", "unit": "µM"}, {"measurement": "TGI", "setting": "NCI-H522 lung", "value": "> 74.8", "unit": "µM"}, {"measurement": "TGI", "setting": "LOX IMVI melanoma", "value": "> 100", "unit": "µM"}, {"measurement": "TGI", "setting": "CCRF-CEM leukemia", "value": "> 100", "unit": "µM"}, {"measurement": "TGI", "setting": "A549 NSCLC", "value": "> 100", "unit": "µM"}, {"measurement": "TGI", "setting": "RPMI-8226 leukemia", "value": "> 100", "unit": "µM"}]}]}
